Data taken from US12018059B2, “Human amylin analog polypeptides and methods of use” (Intarcia Therapeutics, Inc., priority 2018, dated 2024).
Where two headings read alike, the source gives them in different places. Starred links: 1 amine or outer side, 2 acyl side, 3 side chain; linkers in the order of their positions; H or OH if unused. Positions of bridges follow the written chain, without caps; N, C: chain ends. Non-standard residues stand in square brackets, D forms with d. Residues, ends and D or L forms follow the SMILES beside them. Groups on a side chain read outwards from the residue. *: point of attachment. X2 = O=C(O)CCCCCCCCCCCCCCCCC(=O)N[C@@H](CCC(=O)NCOCCOCC(=O)NCOCCOCC(=O)*)C(=O)O; C20 diacid = O=C(O)CCCCCCCCCCCCCCCCCCC(=O)*; γGlu = O=C(O)[C@H](CCC(=O)[*:2])N[*:1]; AEEA = NCCOCCOCC(=O)O

Legend:
[1] = target: T1, human calcitonin receptor (hCTR) (Homo sapiens, UniProt P30988); experiment: cAMP accumulation functional assay in HEK293-CNG cells expressing hCTR; assay type: cell-based
T1 sequence (P30988 25-474): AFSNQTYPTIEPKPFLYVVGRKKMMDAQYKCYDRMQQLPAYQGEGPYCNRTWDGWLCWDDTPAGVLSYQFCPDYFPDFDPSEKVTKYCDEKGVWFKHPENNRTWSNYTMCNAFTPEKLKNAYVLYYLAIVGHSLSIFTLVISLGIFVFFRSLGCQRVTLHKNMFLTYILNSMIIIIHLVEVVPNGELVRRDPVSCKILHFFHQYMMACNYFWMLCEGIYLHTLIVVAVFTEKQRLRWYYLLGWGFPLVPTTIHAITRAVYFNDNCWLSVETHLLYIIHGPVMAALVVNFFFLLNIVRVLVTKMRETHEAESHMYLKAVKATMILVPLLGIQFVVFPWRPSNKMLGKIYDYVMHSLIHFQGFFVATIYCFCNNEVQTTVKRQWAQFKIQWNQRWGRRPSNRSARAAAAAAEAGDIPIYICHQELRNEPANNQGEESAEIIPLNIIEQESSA
Method: (§1) In the presence of the non-specific cAMP/cGMP phosphodiesterase inhibitor 3-isobutyl-1-methylxanthine (IBMX), accumulating cAMP can be measured in vitro using common detection methods. Thus, it is possible to estimate an in vitro potency (pEC50) for peptides activating each of these receptors using fit dose-response curves for cAMP accumulation.
(§2) Cells were carried in growth media for no more than 10 passages prior to testing.
(§3) Peptides were serially diluted in the same buffer as above for each given assay condition. Two assay control solutions consisting of 50 mcM forskolin (cAMP system maximum) or assay buffer only (cAMP system minimum) were also prepared in the appropriate stimulation buffers. Five microliters of each peptide-concentration, or assay control was added to triplicate wells and incubated for thirty minutes at room temperature. During this incubation step a 4× europium labelled cAMP tracer solution and a 4× Ulight®-anti-cAMP solution (consisting of an anti-cAMP monoclonal antibody labelled with Ulight™ dye) was prepared according to the manufacturer's protocol (PerkinElmer LANCE Ultra cAMP kit). Following this incubation, 5 mcL europium labelled cAMP and 5 mcL Ulight anti-cAMP antibody was added to wells. The plate was covered with an adhesive cover to prevent evaporation and incubated for 60 minutes at room temperature in the dark. Plates were read on an Envision fluorescent plate reader (PerkinElmer).
(§4) Test values were first normalized to the forskolin induced cAMP system maximum and system minimum averaged values in Excel using the formula: (test value−system minavg)/(system maxavg−system minavg)*100. Normalized test values represent a baseline corrected percentage of the system maximum cAMP response induced by forskolin. Normalized data was analyzed from triplicate tests and used to estimate the EC50 for each peptide on each receptor. Data was fit in GraphPad Prism software (v7.04) using a 4-parameter logistic curve model: Y=Bottom+(Top−Bottom)/(1+10^((Log EC50−X))). The Hill slope was constrained to 1.0. EC50 values were converted to pEC50 values using the formula: pEC50=−Log (EC50).

[2] = target: human amylin 3 receptor (hAMY3R) (Homo sapiens, UniProt O60896+P30988); experiment: cAMP accumulation functional assay in HEK293-CNG cells expressing hAMY3R; assay type: cell-based
Chain of human amylin 3 receptor (hAMY3R) (O60896 24-148, one chain of several): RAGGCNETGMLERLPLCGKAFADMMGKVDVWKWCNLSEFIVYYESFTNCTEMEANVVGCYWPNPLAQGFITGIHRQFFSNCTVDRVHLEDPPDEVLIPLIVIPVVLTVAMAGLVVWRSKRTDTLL
Method: as §1, §2, §3, §4

in vivo = experiment: in vivo; parameters: species or system Sprague-Dawley rats; conditions: rat, iv, 0.033 mg/kg
How it was run: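 Peptide plasma levels measured by UPLC-MS/MS (C18, product-ion monitoring) after protein precipitation or WCX SPE, calibrated in K2EDTA/protease-inhibitor rat plasma. Dosing in non-fasted male Sprague-Dawley rats (n=3): 0.033 mg/kg over 1 h by IV or SC infusion, or 0.3 mg/kg SC bolus; sampling up to 48 h.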

[3] = Acute food intake inhibition after SC bolus injection (BioDAQ); conditions: Long Evans rats on 45% high fat diet
[4] = hCTR 0% HSA, 0% HSA, read-out: pEC50 hCTR 0% HSA (converted)
[5] = hCTR 4% HSA, 4% HSA, read-out: pEC50 hCTR 4% HSA (converted)
[6] = 0% HSA, read-out: pEC50 hAMY3R 0% HSA (converted)
[7] = 4% HSA, read-out: pEC50 hAMY3R 4% HSA (converted)
[8] = pEC50 hAMY3R 0.1% HSA, 0.1% HSA

| Compound | EC50 [1, 4] [nM] | EC50 ([1]; hCTR 0.1% HSA, 0.1% HSA) [nM] | EC50 [1, 5] [nM] | EC50 [2, 6] [nM] | EC50 [2, 7] [nM] | EC50 [2, 8] [nM] | Vd (in vivo) [L/kg] | clearance (in vivo) [mL/h/kg] | half-life (in vivo) [h] | Acute Food Intake % Inhibition vs vehicle ([3]; 0-24 hr after acute SC dosing) [%] | Acute Food Intake % Inhibition vs vehicle ([3]; 25-48 hr after acute SC dosing) [%] |
| --- | --- | --- | --- | --- | --- | --- | --- | --- | --- | --- | --- |
| CC[C@H](C)[C@H](NC(=O)[C@@H]1CCCN1C(=O)CNC(=O)[C@H](Cc1ccccc1)NC(=O)[C@H](CC(N)=O)NC(=O)[C@H](CC(N)=O)NC(=O)[C@H](CO)NC(=O)[C@H](CO)NC(=O)[C@H](CCCCN)NC(=O)[C@H](Cc1c[nH]cn1)NC(=O)[C@H](CC(C)C)NC(=O)[C@@H](CCCCNC(=O)CC[C@H](NC(=O)CC[C@H](NC(=O)COCCOCCNC(=O)CC[C@H](NC(=O)CCCCCCCCCCCCCCCCCCC(=O)O)C(=O)O)C(=O)O)C(=O)O)NC(=O)[C@H](CC(N)=O)NC(=O)[C@H](C)NC(=O)[C@H](CC(C)C)NC(=O)[C@H](CCCNC(=N)N)NC(=O)[C@H](CCC(N)=O)NC(=O)[C@@H](NC(=O)[C@H](C)NC(=O)[C@@H]1CSSC[C@H](NC(=O)[C@@H](N)CO)C(=O)N[C@@H](CC(N)=O)C(=O)N[C@@H]([C@@H](C)O)C(=O)N[C@@H](CO)C(=O)N[C@@H]([C@@H](C)O)C(=O)N1)[C@@H](C)O)C(=O)N[C@@H](CC(C)C)C(=O)N1CCC[C@H]1C(=O)N1CCC[C@H]1C(=O)N[C@H](C(=O)N[C@@H](CCCCN)C(=O)N[C@H](C(=O)NCC(=O)N[C@@H](CO)C(=O)N[C@@H](CCC(=O)O)C(=O)N[C@H](C(=O)N[C@@H](Cc1ccc(O)cc1)C(N)=O)[C@@H](C)O)C(C)C)[C@@H](C)O [Compound A100] (H-SCNTSTCATQRLAN[dK]([γGlu-γGlu-AEEA-γGlu-C20 diacid])LHKSSNNFGPILPPTKVGSETY-NH2; disulfide 2-7; N-terminus assumed) | 0.0316 | 7.94 | 79.4 | 0.00794 | 25.1 | 1.58 | 0.14 | 4.75 | 21.4 |  |  |
| CC[C@H](C)[C@H](NC(=O)[C@@H]1CCCN1C(=O)CNC(=O)[C@H](Cc1ccccc1)NC(=O)[C@H](CC(N)=O)NC(=O)[C@H](CC(N)=O)NC(=O)[C@H](CO)NC(=O)[C@H](CO)NC(=O)[C@H](CCCCN)NC(=O)[C@H](Cc1c[nH]cn1)NC(=O)[C@H](CC(C)C)NC(=O)[C@H](CCCCNC(=O)COCCOCNC(=O)COCCOCNC(=O)CC[C@H](NC(=O)CCCCCCCCCCCCCCCCC(=O)O)C(=O)O)NC(=O)[C@H](CC(N)=O)NC(=O)[C@H](C)NC(=O)[C@H](CC(C)C)NC(=O)[C@H](CCCNC(=N)N)NC(=O)[C@H](CCC(N)=O)NC(=O)[C@@H](NC(=O)[C@H](C)NC(=O)[C@@H]1CSSC[C@H](NC(=O)[C@@H](N)CO)C(=O)N[C@@H](CC(N)=O)C(=O)N[C@@H]([C@@H](C)O)C(=O)N[C@@H](CO)C(=O)N[C@@H]([C@@H](C)O)C(=O)N1)[C@@H](C)O)C(=O)N[C@@H](CC(C)C)C(=O)N1CCC[C@H]1C(=O)N1CCC[C@H]1C(=O)N[C@H](C(=O)N[C@@H](CCCCN)C(=O)N[C@H](C(=O)NCC(=O)N[C@@H](CO)C(=O)N[C@@H](CCC(=O)O)C(=O)N[C@H](C(=O)N[C@@H](Cc1ccc(O)cc1)C(N)=O)[C@@H](C)O)C(C)C)[C@@H](C)O [Compound A98] (H-SCNTSTCATQRLANK(X2)LHKSSNNFGPILPPTKVGSETY-NH2; disulfide 2-7; N-terminus assumed) |  |  |  |  |  |  | 0.159 | 7.14 | 17.4 | 23 | 24 |
| CC[C@H](C)[C@H](NC(=O)[C@@H]1CCCN1C(=O)CNC(=O)[C@H](Cc1ccccc1)NC(=O)[C@H](CC(N)=O)NC(=O)[C@H](CC(N)=O)NC(=O)[C@H](CO)NC(=O)[C@H](CO)NC(=O)[C@H](CCCCN)NC(=O)[C@H](Cc1c[nH]cn1)NC(=O)[C@H](CC(C)C)NC(=O)[C@H](CCC(=O)O)NC(=O)[C@H](CC(N)=O)NC(=O)[C@H](C)NC(=O)[C@H](CC(C)C)NC(=O)[C@H](CCCNC(=N)N)NC(=O)[C@H](CCC(N)=O)NC(=O)[C@@H](NC(=O)[C@H](C)NC(=O)[C@@H]1CSSC[C@H](NC(=O)[C@@H](N)CCCCNC(=O)CC[C@H](NC(=O)CC[C@H](NC(=O)COCCOCCNC(=O)COCCOCCNC(=O)CC[C@H](NC(=O)CCCCCCCCCCCCCCCCCCC(=O)O)C(=O)O)C(=O)O)C(=O)O)C(=O)N[C@@H](CC(N)=O)C(=O)N[C@@H]([C@@H](C)O)C(=O)N[C@@H](CO)C(=O)N[C@@H]([C@@H](C)O)C(=O)N1)[C@@H](C)O)C(=O)N[C@@H](CC(C)C)C(=O)N1CCC[C@H]1C(=O)N1CCC[C@H]1C(=O)N[C@H](C(=O)N[C@@H](CCCCN)C(=O)N[C@H](C(=O)NCC(=O)N[C@@H](CO)C(=O)N[C@@H](CCC(=O)O)C(=O)N[C@H](C(=O)N[C@@H](Cc1ccc(O)cc1)C(N)=O)[C@@H](C)O)C(C)C)[C@@H](C)O [Compound A112] (H-K([γGlu-γGlu-AEEA-AEEA-γGlu-C20 diacid])CNTSTCATQRLANELHKSSNNFGPILPPTKVGSETY-NH2; disulfide 2-7) | 0.0126 | 3.16 | 31.6 | 0.00251 | 10 | 0.501 | 0.0998 | 2.45 | 32.6 |  |  |
| CC[C@H](C)[C@H](NC(=O)[C@@H]1CCCN1C(=O)CNC(=O)[C@H](Cc1ccccc1)NC(=O)[C@H](CC(N)=O)NC(=O)[C@H](CC(N)=O)NC(=O)[C@H](CO)NC(=O)[C@H](CO)NC(=O)[C@H](CCCCN)NC(=O)[C@H](Cc1c[nH]cn1)NC(=O)[C@H](CC(C)C)NC(=O)[C@H](CCC(=O)O)NC(=O)[C@H](CC(N)=O)NC(=O)[C@H](C)NC(=O)[C@H](CC(C)C)NC(=O)[C@H](CCCNC(=N)N)NC(=O)[C@H](CCC(N)=O)NC(=O)[C@@H](NC(=O)[C@H](C)NC(=O)[C@@H]1CSSC[C@H](NC(=O)[C@@H](N)CCCCNC(=O)CC[C@H](NC(=O)CCCCCCCCCCCCCCCCCCC(=O)O)C(=O)O)C(=O)N[C@@H](CC(N)=O)C(=O)N[C@@H]([C@@H](C)O)C(=O)N[C@@H](CO)C(=O)N[C@@H]([C@@H](C)O)C(=O)N1)[C@@H](C)O)C(=O)N[C@@H](CC(C)C)C(=O)N1CCC[C@H]1C(=O)N1CCC[C@H]1C(=O)N[C@H](C(=O)N[C@@H](CCCCN)C(=O)N[C@H](C(=O)NCC(=O)N[C@@H](CO)C(=O)N[C@@H](CCC(=O)O)C(=O)N[C@H](C(=O)N[C@@H](Cc1ccc(O)cc1)C(N)=O)[C@@H](C)O)C(C)C)[C@@H](C)O [Compound A119] (H-K([γGlu-C20 diacid])CNTSTCATQRLANELHKSSNNFGPILPPTKVGSETY-NH2; disulfide 2-7; N-terminus assumed) | 0.00631 | 0.316 | 12.6 | 0.00126 | 3.16 | 0.0631 |  |  |  |  |  |
